Data: paper PMC12155096 (International Journal of Molecular Sciences, 2025)
pIC50: −log10 of the molar value. Counter-ions that a name gives are not always drawn. Like-named read-outs stand apart in the source and are kept apart here.

Legend:
CYP3A4 = CYP3A4 (Homo sapiens, UniProt P08684)
human CYP2C9 [1] = biological target: T1, human CYP2C9 (Homo sapiens, UniProt P11712); assay: biochemical
human CYP2D6 = human CYP2D6 (Homo sapiens, UniProt P10635)
human CYP1A2 = biological target: T2, human CYP1A2 (Homo sapiens, UniProt P05177); assay: biochemical
T2 sequence (P05177 1-516): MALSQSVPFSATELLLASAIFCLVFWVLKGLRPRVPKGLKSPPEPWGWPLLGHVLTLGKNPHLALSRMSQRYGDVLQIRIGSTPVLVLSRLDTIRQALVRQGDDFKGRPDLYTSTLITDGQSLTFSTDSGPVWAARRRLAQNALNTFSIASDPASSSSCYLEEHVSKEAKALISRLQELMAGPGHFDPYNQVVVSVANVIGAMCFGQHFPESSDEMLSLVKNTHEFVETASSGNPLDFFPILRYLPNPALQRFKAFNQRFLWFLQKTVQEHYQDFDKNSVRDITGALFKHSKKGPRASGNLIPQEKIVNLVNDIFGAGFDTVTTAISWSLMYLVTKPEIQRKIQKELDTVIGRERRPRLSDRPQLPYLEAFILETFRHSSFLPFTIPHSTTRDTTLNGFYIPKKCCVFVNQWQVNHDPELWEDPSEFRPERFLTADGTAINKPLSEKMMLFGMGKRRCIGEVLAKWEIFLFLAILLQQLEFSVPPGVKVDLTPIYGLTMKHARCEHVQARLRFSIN

human CYP2C19 [2] = biological target: T3, human CYP2C19 (Homo sapiens, UniProt P33261); assay: biochemical
human CYP2C9 [3] = biological target: T1, human CYP2C9
[4] = biological target: Photinus pyralis (firefly) luciferase (Photinus pyralis, UniProt P08659); assay: biochemical; type: biochemical
human CYP2C19 [5] = biological target: T3, human CYP2C19
[6] = CYP2C9 AC50 (half-maximal activity concentration)
[7] = CYP1A2 AC50 (half-maximal activity concentration)
[8] = CYP2C19 AC50 (half-maximal activity concentration)

CYP3A4, sequence (P08684 whole entry): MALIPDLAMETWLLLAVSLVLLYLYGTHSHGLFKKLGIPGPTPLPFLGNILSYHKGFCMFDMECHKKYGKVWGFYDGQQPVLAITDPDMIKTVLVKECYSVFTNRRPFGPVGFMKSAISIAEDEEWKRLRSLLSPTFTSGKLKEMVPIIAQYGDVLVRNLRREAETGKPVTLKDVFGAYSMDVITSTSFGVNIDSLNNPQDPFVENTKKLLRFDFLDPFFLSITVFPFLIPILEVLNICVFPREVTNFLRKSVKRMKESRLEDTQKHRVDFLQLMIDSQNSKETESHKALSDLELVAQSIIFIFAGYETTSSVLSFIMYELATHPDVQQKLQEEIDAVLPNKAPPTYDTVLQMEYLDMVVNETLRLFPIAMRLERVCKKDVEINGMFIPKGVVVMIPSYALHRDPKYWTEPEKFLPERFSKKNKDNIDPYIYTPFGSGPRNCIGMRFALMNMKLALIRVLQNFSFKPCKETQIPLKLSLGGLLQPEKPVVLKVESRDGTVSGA
T3 sequence (P33261 whole entry): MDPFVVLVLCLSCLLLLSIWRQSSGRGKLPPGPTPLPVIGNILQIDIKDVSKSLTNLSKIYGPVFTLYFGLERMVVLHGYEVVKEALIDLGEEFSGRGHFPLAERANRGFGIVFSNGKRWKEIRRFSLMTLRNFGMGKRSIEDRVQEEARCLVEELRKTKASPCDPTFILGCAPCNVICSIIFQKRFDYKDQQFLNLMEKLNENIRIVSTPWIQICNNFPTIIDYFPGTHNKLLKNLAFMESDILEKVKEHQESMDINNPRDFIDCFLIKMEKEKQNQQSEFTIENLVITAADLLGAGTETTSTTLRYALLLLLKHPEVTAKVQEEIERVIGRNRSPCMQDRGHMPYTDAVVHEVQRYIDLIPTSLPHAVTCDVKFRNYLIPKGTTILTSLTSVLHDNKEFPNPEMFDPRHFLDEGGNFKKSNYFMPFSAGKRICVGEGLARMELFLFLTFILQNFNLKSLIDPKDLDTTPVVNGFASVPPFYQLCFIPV
human CYP2D6, sequence (P10635 whole entry): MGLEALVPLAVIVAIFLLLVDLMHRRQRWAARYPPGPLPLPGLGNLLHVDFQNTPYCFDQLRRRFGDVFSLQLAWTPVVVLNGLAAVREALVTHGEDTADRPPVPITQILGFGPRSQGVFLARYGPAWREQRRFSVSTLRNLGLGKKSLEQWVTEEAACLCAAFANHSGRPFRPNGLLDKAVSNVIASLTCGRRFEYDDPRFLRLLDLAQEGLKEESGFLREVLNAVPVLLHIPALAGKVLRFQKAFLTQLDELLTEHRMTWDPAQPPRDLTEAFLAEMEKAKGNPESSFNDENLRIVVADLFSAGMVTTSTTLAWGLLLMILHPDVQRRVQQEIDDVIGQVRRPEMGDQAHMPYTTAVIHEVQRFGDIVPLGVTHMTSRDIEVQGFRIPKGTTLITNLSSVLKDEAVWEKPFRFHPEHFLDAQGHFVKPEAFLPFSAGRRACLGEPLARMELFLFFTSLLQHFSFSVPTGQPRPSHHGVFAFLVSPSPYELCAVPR
T1 sequence (P11712 whole entry): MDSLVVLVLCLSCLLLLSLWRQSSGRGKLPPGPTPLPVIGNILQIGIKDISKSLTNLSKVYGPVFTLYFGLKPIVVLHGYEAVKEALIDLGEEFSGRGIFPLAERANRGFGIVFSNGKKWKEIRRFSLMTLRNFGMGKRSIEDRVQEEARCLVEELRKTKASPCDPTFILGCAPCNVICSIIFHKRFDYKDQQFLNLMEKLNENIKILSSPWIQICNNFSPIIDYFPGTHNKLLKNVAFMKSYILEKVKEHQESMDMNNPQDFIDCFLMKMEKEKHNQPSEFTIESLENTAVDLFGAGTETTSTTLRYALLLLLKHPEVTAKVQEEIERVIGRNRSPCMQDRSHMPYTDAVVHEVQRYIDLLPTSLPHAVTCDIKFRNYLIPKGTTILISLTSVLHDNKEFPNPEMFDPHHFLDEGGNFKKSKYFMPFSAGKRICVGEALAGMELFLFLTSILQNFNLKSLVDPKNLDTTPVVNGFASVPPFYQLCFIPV
Photinus pyralis (firefly) luciferase, sequence (P08659 whole entry): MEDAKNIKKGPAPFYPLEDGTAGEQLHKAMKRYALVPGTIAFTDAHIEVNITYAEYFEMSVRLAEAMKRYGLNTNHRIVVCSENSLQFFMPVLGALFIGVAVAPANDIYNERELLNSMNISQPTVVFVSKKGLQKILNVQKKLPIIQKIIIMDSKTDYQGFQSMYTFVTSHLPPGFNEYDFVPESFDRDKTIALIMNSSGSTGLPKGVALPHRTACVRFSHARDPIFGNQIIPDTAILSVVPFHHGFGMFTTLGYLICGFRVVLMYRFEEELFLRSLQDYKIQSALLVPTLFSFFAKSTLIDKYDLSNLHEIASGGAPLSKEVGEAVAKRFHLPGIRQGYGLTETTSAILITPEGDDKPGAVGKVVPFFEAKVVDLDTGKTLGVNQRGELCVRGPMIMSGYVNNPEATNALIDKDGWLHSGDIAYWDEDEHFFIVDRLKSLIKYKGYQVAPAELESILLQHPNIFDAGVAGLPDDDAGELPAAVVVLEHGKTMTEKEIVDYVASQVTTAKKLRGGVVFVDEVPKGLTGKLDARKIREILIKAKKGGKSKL

SMILES | CYP3A4 AC50 (half-maximal activity concentration) (CYP3A4) | AC50 (human CYP2C9 [1]; [6]) [µM] | CYP2D6 AC50 (half-maximal activity concentration) (human CYP2D6) | AC50 (human CYP1A2; [7]) [µM] | Luciferase IC50 (half-maximal inhibitory concentration) [4] | also measured
Nc1c(Br)cc([N+](=O)[O-])cc1Br [2,6-Dibromo-4-nitroaniline] | Inactive | 18.1 | Inactive | 1.27 | – | AC50 (human CYP2C19 [2]; [8]): 43.1 µM
CCC(C)c1ccccc1O (centres unmarked) [2-(Butan-2-yl)phenol] | Inconclusive inhibitor | 53.2 | Inactive | 38.5 | – | AC50 (human CYP2C19 [2]; [8]): 9.46 µM
CC(C)c1ccccc1O [2-Isopropylphenol] | Inactive | – | Inactive | – | – | CYP2C9 AC50 (half-maximal activity concentration) (human CYP2C9 [3]): Inactive; AC50 (human CYP1A2): 47.7 µM; AC50 (human CYP2C19 [2]): 9.09 µM
O=[N+]([O-])c1ccc(O)cc1C(F)(F)F [3-Trifluoromethyl-4-nitrophenol] | Inconclusive inhibitor | 34.1 | Inconclusive inhibitor | 56.6 | – | AC50 (human CYP2C19 [2]; [8]): 27.9 µM
CCc1cc(Cc2cc(CC)c(N)c(CC)c2)cc(CC)c1N [4,4'-Methylenebis(2,6-diethylaniline)] | – | – | – | – | – | Luciferase IC50 [4]: Inactive
CCC(C)c1ccc(O)cc1 (centres unmarked) [4-(Butan-2-yl)phenol] | Inactive | 33.4 | Inactive | 34.6 | – | AC50 (human CYP2C19 [2]; [8]): 3.47 µM
CCN(CC)c1ccc(C=O)cc1 [4-(Diethylamino)benzaldehyde] | Inactive | – | Inconclusive inhibitor | – | – | AC50 (human CYP2C9 [1]): 20.1 µM; AC50 (human CYP1A2): 5.66 µM; AC50 (human CYP2C19 [2]): 14.3 µM
CC(C)(C)c1ccc(OC(=O)c2ccccc2O)cc1 [4-tert-Butylphenyl salicylate] | Inactive | – | Inactive | – | – | AC50 (human CYP2C9 [1]): 24.7 µM; AC50 (human CYP1A2): 40.1 µM; AC50 (human CYP2C19 [2]): 14.2 µM
O=[N+]([O-])c1ccc2c3c(cccc13)CC2 [5-Nitroacenaphthene] | Inconclusive inhibitor | 8.98 | Inactive | 2.25 | – | AC50 (human CYP2C19 [2]; [8]): 33.6 µM
CC(=O)C1(O)CCC2C3CCC4=CC(=O)CCC4(C)C3CCC21C (stereo not drawn) [17alpha-Hydroxyprogesterone] | – | – | – | – | Inactive | –
C[C@]12CC[C@@H]3c4ccc(O)cc4CC[C@H]3[C@@H]1CC[C@@H]2O [17beta-Estradiol] | Inconclusive activator | 5.72 | Inactive | 29.1 | – | AC50 (human CYP2C19 [2]; [8]): 16.8 µM
C[C@@H]1CC[C@H]2[C@@H](C)C(=O)O[C@@H]3O[C@@]4(C)CC[C@@H]1[C@]32OO4 [Artemisinin] | – | – | – | – | Inactive | –
CCNc1nc(NC(C)C)nc(OC)n1 [Atraton] | Inconclusive inhibitor | 38.5 | Inactive | 28.4 | – | AC50 (human CYP2C19 [2]; [8]): 32.1 µM
CCOC(=O)OC(C)OC(=O)[C@@H]1N2C(=O)[C@@H](NC(=O)[C@H](N)c3ccccc3)[C@H]2SC1(C)C (some centres unmarked) [Bacampicillin hydrochloride] | – | – | – | – | Inactive | –
Cc1c(-c2ccc(O)cc2)n(Cc2ccc(OCCN3CCCCCC3)cc2)c2ccc(O)cc12 [Bazedoxifene] | – | – | – | – | Inactive | –
[Cl-].c1ccc(C[P+](c2ccccc2)(c2ccccc2)c2ccccc2)cc1 [Benzyltriphenylphosphonium chloride] | – | – | – | – | Inactive | –
Oc1ccc(Cc2ccc(O)cc2)cc1 [Bis(4-hydroxyphenyl)methane] | Inconclusive inhibitor | 11.8 | Inconclusive inhibitor | 38.8 | – | CYP2C19 AC50 (half-maximal activity concentration) (human CYP2C19 [5]): Inconclusive inhibitor
Nc1c(Cl)cc([N+](=O)[O-])cc1Cl [Dicloran] | Inactive | 17.9 | Inactive | 2.84 | – | AC50 (human CYP2C19 [2]; [8]): 55.8 µM
C[C@]12CC[C@@H]3c4ccc(O)cc4CC[C@H]3[C@@H]1C[C@@H](O)[C@@H]2O [Estriol] | Inactive | 21 | Inactive | 34.4 | – | AC50 (human CYP2C19 [2]; [8]): 31.2 µM
COc1ccc(CCN(C)CCCC(C#N)(c2cc(OC)c(OC)c(OC)c2)C(C)C)cc1OC (centres unmarked) [Gallopamil hydrochloride] | – | – | – | – | Inactive | –
COc1ccccc1OC(=O)Oc1ccccc1OC [Guaiacol carbonate] | Inactive | – | Inactive | – | – | AC50 (human CYP2C9 [1]): 14.9 µM; AC50 (human CYP1A2): 6.41 µM; AC50 (human CYP2C19 [2]): 9.77 µM

SMILES | CYP3A4 AC50 (half-maximal activity concentration) (CYP3A4) | AC50 (human CYP2C9 [1]; [6]) [µM] | CYP2D6 AC50 (half-maximal activity concentration) (human CYP2D6) | AC50 (human CYP1A2; [7]) [µM] | Luciferase IC50 (half-maximal inhibitory concentration) [4] | also measured
CC(CNC1CCCCC1)OC(=O)c1ccccc1 (centres unmarked) [Hexylcaine hydrochloride] | – | – | – | – | Inactive | –
OCCOCCN1CCN(C(c2ccccc2)c2ccc(Cl)cc2)CC1 (centres unmarked) [Hydroxyzine hydrochloride] | – | – | – | – | – | Luciferase IC50 [4]: Inactive
CC(C)(C)NC(=O)[C@@H]1CN(Cc2cccnc2)CCN1C[C@@H](O)C[C@@H](Cc1ccccc1)C(=O)N[C@H]1c2ccccc2C[C@H]1O [Indinavir sulfate] | – | – | – | – | Inactive | –
Clc1ccc(C(Cn2ccnc2)OCc2c(Cl)cccc2Cl)c(Cl)c1 (centres unmarked) [Isoconazole nitrate] | – | – | – | – | Inactive | –
CNCCCC12CCC(c3ccccc31)c1ccccc12 [Maprotiline hydrochloride] | – | – | – | – | – | Luciferase IC50 [4]: Inactive
COC(=O)Nc1nc2ccc(C(=O)c3ccccc3)cc2[nH]1 [Mebendazole] | Inactive | 3.89 | Inactive | 14 | – | CYP2C19 AC50 (half-maximal activity concentration) (human CYP2C19 [5]): Inactive
CCN(CCCCOC(=O)c1ccc(OC)c(OC)c1)C(C)Cc1ccc(OC)cc1 (centres unmarked) [Mebeverine hydrochloride] | – | – | – | – | Inactive | –
CCCNC(C)(C)COC(=O)c1ccccc1 [Meprylcaine hydrochloride] | – | – | – | – | Inactive | –
CN1C[C@H](CNC(=O)OCc2ccccc2)C[C@@H]2c3cccc4c3c(cn4C)C[C@H]21 [Metergoline] | – | – | – | – | – | Luciferase IC50 [4]: Inactive
CC[C@@H](CO)NC(=O)[C@@H]1C=C2c3cccc4[nH]cc(c34)C[C@H]2N(C)C1 [Methergine] | – | – | – | – | – | Luciferase IC50 [4]: Inactive
CN(C)c1ccc2nc3ccc(=[N+](C)C)cc-3sc2c1 [Methylene blue] | – | – | – | – | – | pIC50 [4]: 4.54
COC(=O)c1ccc(O)cc1 [Methylparaben] | Inactive | 17.4 | Inactive | 20.8 | – | CYP2C19 AC50 (half-maximal activity concentration) (human CYP2C19 [5]): Inactive
CC#C[C@]1(O)CC[C@H]2[C@@H]3CCC4=CC(=O)CCC4=C3[C@@H](c3ccc(N(C)C)cc3)C[C@@]21C [Mifepristone] | – | – | – | – | – | Luciferase IC50 [4]: Inactive
NC(=O)Cc1cccc(C(=O)c2ccccc2)c1N [Nepafenac] | Inactive | 25.3 | Inactive | 14.4 | – | AC50 (human CYP2C19 [2]; [8]): 29.9 µM
COCCOC(=O)C1=C(C)NC(C)=C(C(=O)OC(C)C)C1c1cccc([N+](=O)[O-])c1 (centres unmarked) [Nimodipine] | – | – | – | – | Inactive | –
COC(=O)Nc1nc2ccc(C(=O)c3cccs3)cc2[nH]1 [Nocodazole] | Inactive | 4.43 | Inconclusive inhibitor | 15.2 | – | CYP2C19 AC50 (half-maximal activity concentration) (human CYP2C19 [5]): Inconclusive inhibitor
COc1cc(NC(C)CCCN)c2ncccc2c1 (centres unmarked) [Primaquine diphosphate] | – | – | – | – | Inactive | –
CCCNCC(O)COc1ccccc1C(=O)CCc1ccccc1 (centres unmarked) [Propafenone hydrochloride] | – | – | – | – | Inactive | –
O=C(c1ccc(OCCN2CCCCC2)cc1)c1c(-c2ccc(O)cc2)sc2cc(O)ccc12 [Raloxifene hydrochloride] | – | – | – | – | Inactive | –
CCNc1nc(NC(C)CC)nc(OC)n1 (centres unmarked) [Secbumeton] | Inactive | – | Inactive | – | – | AC50 (human CYP2C9 [1]): 43.5 µM; AC50 (human CYP1A2): 26.2 µM; AC50 (human CYP2C19 [2]): 26.4 µM
CCNc1nc(Cl)nc(NCC)n1 [Simazine] | Inactive | 5.09 | Inconclusive inhibitor | 7.9 | – | CYP2C19 AC50 (half-maximal activity concentration) (human CYP2C19 [5]): Inactive
